Reference: patent US10131652B2, “Pyrimidinyloxy benzene derivatives as herbicides” (E. I. DU PONT DE NEMOURS AND COMPANY, priority 2014, dated 2018)

Columns and labels:
Format in all cases: in vivo
[1] = system: galium (catchweed bedstraw, Galium aparine); test: Test B postemergence plant response
How it was run: (§1)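 Pots, loam soil + sand; postemergence treatment at 1–2 leaf stage, 2–10 cm; greenhouse ~10 d; visual injury score 0 (none) to 100 (complete control) relative to untreated controls.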

[2] = system: blackgrass (Alopecurus myosuroides); test: Test B postemergence plant response
How it was run: as §1

[3] = system: wheat (Triticum aestivum); test: Test B pre-/postemergence plant response
How it was run: (§2)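 Scoring used a 0–100 scale (100 = complete control) by visual comparison with untreated plants after approximately 10 days in the greenhouse. Compounds, in surfactant-containing non-phytotoxic solvent, were sprayed onto soil at planting or onto 2–10 cm seedlings.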

[4] = system: Italian ryegrass (Lolium multiflorum); test: Test B pre-/postemergence plant response
How it was run: as §2

[5] = system: giant foxtail (Setaria faberii); test: Test B pre-/postemergence plant response
How it was run: as §2

[6] = system: barnyardgrass (Echinochloa crus-galli); test: Test B pre-/postemergence plant response
How it was run: as §2

[7] = system: ragweed (common ragweed, Ambrosia elatior); test: Test B pre-/postemergence plant response
How it was run: as §2

kochia (Kochia scoparia) = test: Test B pre-/postemergence plant response
How it was run: as §2

[8] = system: pigweed (Amaranthus retroflexus); test: Test B pre-/postemergence plant response
How it was run: as §2

corn (Zea mays) = test: Test B pre-/postemergence plant response
How it was run: as §2

[9] = system: ducksalad (Heteranthera limosa); test: Test C flooded paddy test plant response; settings: Flood, 250 g ai/ha; scale of 0 to 100 where 0 is no effect and 100 is complete control; 13 to 15 days
How it was run: (§3)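 Flooded-pot format, 3 cm water over soil maintained for the test duration; test compounds dispensed into the water at the 2-leaf stage. Greenhouse holding 13 to 15 days. Plants evaluated visually relative to untreated controls, 0 meaning no effect and 100 complete control.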

[10] = system: barnyardgrass (Echinochloa crus-galli); test: Test C flooded paddy test plant response; settings: Flood, 250 g ai/ha; scale of 0 to 100 where 0 is no effect and 100 is complete control; 13 to 15 days
How it was run: as §3

[11] = system: small-flower umbrella sedge (Cyperus difformis); test: Test C flooded paddy test plant response; settings: Flood, 250 g ai/ha; scale of 0 to 100 where 0 is no effect and 100 is complete control; 13 to 15 days
How it was run: as §3

rice (Oryza sativa) = test: Test C flooded paddy test plant response; settings: Flood, 250 g ai/ha; scale of 0 to 100 where 0 is no effect and 100 is complete control; 13 to 15 days
How it was run: as §3

[12] = 125 g ai/ha, postemergence, 0 to 100 scale, 0 no effect, 100 complete control
[13] = 500 g ai/ha, postemergence, 0 to 100 scale, 0 no effect, 100 complete control
[14] = Preemergence, 125 g ai/ha, 0 to 100 scale (0 no effect, 100 complete control)
[15] = Preemergence, 500 g ai/ha, 0 to 100 scale where 0 is no effect and 100 is complete control
[16] = Postemergence, 31 g ai/ha, 0 to 100 scale (0 no effect, 100 complete control)
[17] = 31 g ai/ha, Preemergence, 0 to 100 scale where 0 is no effect and 100 is complete control

Compound | Plant response rating, Galium [1, 12] | Plant response rating, Blackgrass [2, 12] | Plant response rating, Wheat [3, 12] | Plant response rating, Ryegrass, Italian [4, 12] | Ryegrass, Italian plant response rating [4, 14] | Plant response rating, Foxtail, Giant [5, 12] | Foxtail, Giant plant response rating [5, 14] | Plant response rating, Barnyardgrass [6, 12] | Barnyardgrass plant response rating [6, 14] | Plant response rating, Ragweed [7, 12] | Ragweed plant response rating [7, 14] | Plant response rating, Kochia (kochia (Kochia scoparia); [12]) | Kochia plant response rating (kochia (Kochia scoparia); [14]) | Plant response rating, Pigweed [8, 12] | Pigweed plant response rating [8, 14] | Plant response rating, Corn (corn (Zea mays); [12]) | Ducksalad plant response rating [9] | Barnyardgrass plant response rating [10] | Sedge, Umbrella plant response rating [11] | Rice plant response rating (rice (Oryza sativa)) | further results
CC(=O)c1cc(-c2ccccc2Oc2ncc(Cl)cn2)no1 [Compound 215] | 20 | 0 | 0 | 0 | 0 | 20 | 20 | 20 | 40 | 0 | 0 | 0 | 0 | 20 | 20 | 20 | 0 | 0 | 0 | 0 | Plant response rating, Galium [1, 13]: 70; Plant response rating, Blackgrass [2, 13]: 40; Plant response rating, Wheat [3, 13]: 20; Plant response rating, Ryegrass, Italian [4, 13]: 50; Plant response rating, Ryegrass, Italian [4, 15]: 0; Plant response rating, Foxtail, Giant [5, 13]: 80; Plant response rating, Foxtail, Giant [5, 15]: 90; Plant response rating, Barnyardgrass [6, 13]: 90; Plant response rating, Barnyardgrass [6, 15]: 90; Plant response rating, Ragweed [7, 13]: 20; Plant response rating, Ragweed [7, 15]: 0; Plant response rating, Kochia (kochia (Kochia scoparia); [13]): 10; Plant response rating, Kochia (kochia (Kochia scoparia); [15]): 0; Plant response rating, Pigweed [8, 13]: 100; Plant response rating, Pigweed [8, 15]: 90; Plant response rating, Corn (corn (Zea mays); [13]): 40
Cc1csc(-c2ccccc2Oc2ncc(Cl)cn2)c1 [Compound 216] | 50 | 10 | 0 | 0 | 0 | 0 | 0 | 10 | 10 | 0 | 0 | 20 | 0 | 30 | 0 | 10 | 0 | 0 | 0 | 0 | Plant response rating, Galium [1, 16]: 20; Plant response rating, Blackgrass [2, 16]: 0; Plant response rating, Wheat [3, 16]: 0; Plant response rating, Ryegrass, Italian [4, 17]: 0; Plant response rating, Ryegrass, Italian [4, 16]: 0; Plant response rating, Foxtail, Giant [5, 17]: 0; Plant response rating, Foxtail, Giant [5, 16]: 0; Plant response rating, Barnyardgrass [6, 17]: 0; Plant response rating, Barnyardgrass [6, 16]: 10; Plant response rating, Ragweed [7, 17]: 0; Plant response rating, Ragweed [7, 16]: 0; Plant response rating, Kochia (kochia (Kochia scoparia); [17]): 0; Plant response rating, Kochia (kochia (Kochia scoparia); [16]): 10; Plant response rating, Pigweed [8, 17]: 0; Plant response rating, Pigweed [8, 16]: 10; Plant response rating, Corn (corn (Zea mays); [16]): 0
Fc1cccc(Oc2ncc(Cl)cn2)c1-c1cn(CC(F)(F)F)cn1 [Compound 217] | 10 | 0 | 0 | 0 | 0 | 0 | 0 | 0 | 0 | 10 | 0 | 10 | 0 | 10 | 10 | 0 | 40 | 20 | 0 | 0 | Plant response rating, Galium [1, 13]: 30; Plant response rating, Blackgrass [2, 13]: 0; Plant response rating, Wheat [3, 13]: 0; Plant response rating, Ryegrass, Italian [4, 13]: 0; Plant response rating, Ryegrass, Italian [4, 15]: 10; Plant response rating, Foxtail, Giant [5, 13]: 0; Plant response rating, Foxtail, Giant [5, 15]: 30; Plant response rating, Barnyardgrass [6, 13]: 0; Plant response rating, Barnyardgrass [6, 15]: 10; Plant response rating, Ragweed [7, 13]: 30; Plant response rating, Ragweed [7, 15]: 0; Plant response rating, Kochia (kochia (Kochia scoparia); [13]): 30; Plant response rating, Kochia (kochia (Kochia scoparia); [15]): 0; Plant response rating, Pigweed [8, 13]: 60; Plant response rating, Pigweed [8, 15]: 70; Plant response rating, Corn (corn (Zea mays); [13]): 0
CC(=O)c1cc(-c2ccccc2Oc2ncc(Cl)cn2)on1 [Compound 218] | 10 | 0 | 0 | 0 | 0 | 0 | 60 | 0 | 50 | 0 | 0 | 0 | 0 | 40 | 90 | 0 | 0 | 0 | 0 | 0 | Plant response rating, Galium [1, 16]: 0; Plant response rating, Blackgrass [2, 16]: 0; Plant response rating, Wheat [3, 16]: 0; Plant response rating, Ryegrass, Italian [4, 17]: 0; Plant response rating, Ryegrass, Italian [4, 16]: 0; Plant response rating, Foxtail, Giant [5, 17]: 0; Plant response rating, Foxtail, Giant [5, 16]: 0; Plant response rating, Barnyardgrass [6, 17]: 0; Plant response rating, Barnyardgrass [6, 16]: 0; Plant response rating, Ragweed [7, 17]: 0; Plant response rating, Ragweed [7, 16]: 0; Plant response rating, Kochia (kochia (Kochia scoparia); [17]): 0; Plant response rating, Kochia (kochia (Kochia scoparia); [16]): 0; Plant response rating, Pigweed [8, 17]: 0; Plant response rating, Pigweed [8, 16]: 0; Plant response rating, Corn (corn (Zea mays); [16]): 0
COc1ccnc(-c2ccccc2Oc2ncc(Cl)cn2)c1 [Compound 219] | 30 | 0 | 0 | 0 | 0 | 0 | 0 | 0 | 0 | 30 | 0 | 0 | 0 | 10 | 0 | 0 | 0 | 0 | 0 | 0 | Plant response rating, Galium [1, 16]: 20; Plant response rating, Blackgrass [2, 16]: 0; Plant response rating, Wheat [3, 16]: 0; Plant response rating, Ryegrass, Italian [4, 17]: 0; Plant response rating, Ryegrass, Italian [4, 16]: 0; Plant response rating, Foxtail, Giant [5, 17]: 0; Plant response rating, Foxtail, Giant [5, 16]: 0; Plant response rating, Barnyardgrass [6, 17]: 0; Plant response rating, Barnyardgrass [6, 16]: 0; Plant response rating, Ragweed [7, 17]: 0; Plant response rating, Ragweed [7, 16]: 20; Plant response rating, Kochia (kochia (Kochia scoparia); [17]): 0; Plant response rating, Kochia (kochia (Kochia scoparia); [16]): 0; Plant response rating, Pigweed [8, 17]: 0; Plant response rating, Pigweed [8, 16]: 10; Plant response rating, Corn (corn (Zea mays); [16]): 0
